For 17 molecules, TGI results are on record in PubChem BioAssay (NCI).

What all share (assay): inhibition of tumour cell growth, NCI panel, 48 h
The test system of assay [1] is SK-MEL-2 melanoma.
For assay [2], the system named is M14 melanoma.
For assay [3], the system named is OVCAR-4 ovarian.
For assay [4], the system named is CCRF-CEM leukemia.
The test system of assay [5] is OVCAR-8 ovarian.
The subject of assay [6] is OVCAR-3 ovarian.
In assay [7] the test system is HCT-15 colon.
In assay [8] the test system is ACHN renal.
Assay [9] deals with BT-549 breast.
Assay [10] concerns MALME-3M melanoma.
The subject of assay [11] is 786-0 renal.
The test system of assay [12] is DU-145 prostate.
The subject of assay [13] is MDA-MB-435.
The test system of assay [14] is MCF7 breast.
Assay [15] concerns KM12 colon.
The test system of assay [16] is HL-60(TB) leukemia.
Assay [17] deals with NCI-H226 lung.
Assay [18] has as its system HOP-92 NSCLC.

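Grown in 96-well plates, cells were treated for 48 hours with each compound at five concentrations. Insufficient inhibition: endpoint recorded as highest concentration tested. TGI: concentration producing complete growth inhibition.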 Where a SMILES comes first, the peptide text is derived from it. The star is where a group is joined. Boc = CC(C)(C)OC(=O)* A value given as a limit tells only on which side of the number the result lay.

Consider `Cc1cc(C)nc(NS(=O)(=O)c2ccc(Nc3nncc(=O)n3N)cc2)n1`, for which the TGI was > 100 µM in assay [1]; > 100 µM in [2]; 32.9 µM in assay [3]; 11.6 µM in [4]; 29.2 µM in assay [5]; 29.8 µM in [6]. Besides, the TGI is 28.8 µM in assay [7]; > 100 µM in assay [8]; 32.6 µM in assay [9]; 41.6 µM in assay [10]; 29.2 µM in assay [11]; > 100 µM in [12]. Besides, the TGI in assay [13] was 33 µM; in assay [14], 30.3 µM; in assay [15] it was > 100 µM; in assay [16], 40.2 µM.
Take `CCOC(=O)c1ccc(Nc2nc3cc(C(F)(F)F)ccc3nc2-c2ccccc2)cc1`: the TGI is > 100 µM in [17]; > 100 µM in [4]; > 100 µM in assay [5]; > 100 µM in assay [6]; > 100 µM in assay [7]; 47.5 µM in [8]. The TGI in assay [9] is > 100 µM; in assay [10], > 100 µM; in assay [11], 44.8 µM; in assay [12] it was > 100 µM; in assay [13] it was > 100 µM; in [14], > 100 µM. The TGI in assay [15] and in assay [16] was > 100 µM each time.
Turning to `CC(NC(=O)C(NC(=O)OC(C)(C)C)C(C)C)C(=O)N1CCCC1C(=O)NCC(=O)NC(C(=O)NCC(=O)O)C(C)C` (configuration not stated) (Boc-VAPGVG-OH; configuration not given here), the TGI in [1], in [2], in assay [3], in assay [4], in [5] and in assay [6] was > 100 µM throughout. Also, the TGI in assay [7], in assay [18], in assay [8], in assay [10], in assay [11] and in [12] was > 100 µM in each case. For the same molecule, the TGI in assay [13], in assay [14] and in assay [16] was > 100 µM in each case.
Consider `CC1Cc2c(Br)nc(N)nc2NC1=O` (configuration not stated), for which the TGI in [1], in assay [17], in [2], in [3], in assay [5] and in assay [6] was > 100 µM in each case. Further, the TGI in assay [7], in assay [8], in assay [9], in assay [10], in assay [11] and in assay [12] was > 100 µM each time. The TGI in assay [13], in [14] and in [15] was > 100 µM each time.
On to `Cc1ccc([N+](=O)[O-])c2c(NCCNC(=O)Cn3ccnc3[N+](=O)[O-])ccnc12`, for which the TGI in assay [1] is > 100 µM; in [17] it was 88 µM; in [2], > 100 µM; in assay [3] it was > 100 µM; in assay [4] it was > 100 µM; in assay [5], > 100 µM. The TGI in [6] is 52.6 µM; in assay [7], > 100 µM; in assay [18], 78.1 µM; in assay [8], > 100 µM; in assay [10] it was 89.1 µM; in assay [11], > 100 µM. The TGI in assay [12] is > 100 µM; in [13] it was > 100 µM; in assay [14], 44.2 µM; in assay [15], > 100 µM; in assay [16] it was > 100 µM.
As for `COc1cc(C2c3cc4c(cc3OC(NC3CCCCC3)C2C)OCO4)cc(OC)c1OC` (configuration not stated), the TGI in [1] was 47.8 µM; in assay [17] it was 15.8 µM; in assay [2] it was 36.6 µM; in assay [3], > 28.3 µM; in assay [4] it was > 100 µM; in [5], 15.6 µM. Moreover, the TGI in [6] is 0.929 µM; in [7], > 45.4 µM; in assay [18], 22.1 µM; in assay [8] it was 40.2 µM; in [9], 26.4 µM; in [11], 20.1 µM. The TGI is > 100 µM in assay [12], > 100 µM in assay [14], 7.89 µM in [15] and 0.675 µM in assay [16].
On to `COC(=O)/C=C/c1ccc2c(c1)CCC2`, for which the TGI in assay [1], in assay [2], in assay [3], in assay [4], in assay [5] and in assay [6] was > 100 µM throughout. In addition, the TGI in assay [7] was > 100 µM; in assay [18], 46.7 µM; in [8], > 100 µM; in assay [10], > 100 µM; in assay [11] it was > 100 µM; in assay [12], > 100 µM. In addition, the values for the TGI in [13], in [14] and in assay [16] were > 100 µM, > 100 µM and 73.6 µM, respectively.
For the molecule `Cc1ccc(/C(O)=C/c2nc3ccccc3oc2=O)cc1`, the TGI in assay [1], in assay [17], in assay [2], in assay [3], in [4] and in [5] was > 100 µM in each case. The TGI in assay [6], in [7], in assay [8], in assay [9], in assay [10] and in assay [11] was > 100 µM in each case. In addition, the TGI in [12] was > 100 µM; in assay [13] it was 83.4 µM; in assay [14] it was > 100 µM; in assay [15], > 100 µM.
For `O=[N+]([O-])C(Cl)C(Cl)C(Cl)=C(Cl)Cl` (configuration not stated), the TGI in assay [17] is > 100 µM; in [2] it was 19.5 µM; in assay [3], 31.9 µM; in assay [4], 58.6 µM; in assay [5] it was > 75.2 µM; in assay [6], > 56.7 µM. Moreover, the TGI in [7] is 39.7 µM; in [8] it was 31.1 µM; in assay [9], 43.9 µM; in assay [10], 32.9 µM; in [11], 22.3 µM; in assay [12], > 100 µM. The TGI in assay [13] is 56.7 µM; in assay [14], > 54.9 µM; in assay [15] it was > 100 µM; in assay [16], 44.1 µM.
For `CC(=O)OC1CCN(C(=O)c2ccccc2)CC1CC1(c2cc3ccccc3[nH]2)OCCO1` (configuration not stated), the TGI in assay [1], in assay [17], in assay [2], in assay [3], in assay [4] and in assay [5] was > 100 µM throughout. Moreover, the TGI in assay [6], in [7], in [18], in assay [8], in [10] and in [11] was > 100 µM throughout. The TGI in [12] is > 100 µM; in assay [13], > 100 µM; in [14] it was > 100 µM; in assay [15] it was > 100 µM; in assay [16] it was 53.6 µM.
Regarding `N#Cc1c2ccc([N+](=O)[O-])cc2c(=O)n2c1sc1ccc(C(F)(F)F)cc12`, the TGI in assay [17], in assay [2], in assay [3], in assay [5], in [6] and in [7] was > 100 µM in each case. In addition, the TGI in assay [18], in [8], in assay [9], in assay [10], in assay [11] and in [12] was > 100 µM throughout. The TGI in assay [13] and in [15] was > 100 µM throughout.
Take `O=C1CCCCC/C1=C\c1ccc(F)cc1`: the TGI in [1] is > 100 µM; in assay [17], > 100 µM; in assay [2], > 100 µM; in [3] it was > 100 µM; in [4], 59.8 µM; in [6] it was > 100 µM. In addition, the TGI in assay [7], in [18], in [8], in assay [9], in [10] and in assay [11] was > 100 µM in each case. The TGI in assay [12], in [13] and in [15] was > 100 µM throughout.
In the case of `CC(=O)C1C(=O)C(=O)N(c2cccc(C)c2C)C1=O` (configuration not stated), the TGI in assay [1], in assay [17], in assay [2], in assay [5], in assay [6] and in assay [18] was > 100 µM throughout. The TGI in [8], in assay [9], in [11], in assay [12], in assay [14] and in [15] was > 100 µM in each case. Moreover, the TGI in [16] is > 100 µM.
Turning to `CC(C)/C(Cl)=N\OC(=O)Nc1cccc(F)c1`, the TGI was 18.9 µM in [1]; 33.5 µM in assay [17]; 10.8 µM in assay [2]; 25.4 µM in [3]; 5.07 µM in assay [4]; 31.1 µM in [5]. The TGI amounted to 32.4 µM in assay [6]; 30.6 µM in [7]; 4.69 µM in [18]; 27.8 µM in assay [8]; 19.5 µM in assay [9]; 14.4 µM in assay [10]. For the same molecule, the TGI in [11] was found to be 29.6 µM; in [12], 32.5 µM; in assay [14] it was 32.8 µM; in [15], 16.7 µM; in [16], 4.05 µM.
Regarding `CC(C)CNC(=O)CCc1cccc2c1oc1c(CCN)cccc12`, the TGI in assay [1] worked out at 36.7 µM; in assay [17] it was 33.6 µM; in assay [2] it was 30.5 µM; in assay [3], 34 µM; in assay [4] it was 17.6 µM; in assay [5], 34.1 µM. The TGI in [6] amounted to 17.2 µM; in assay [7], 43 µM; in assay [18], 22.7 µM; in assay [8] it was 25.8 µM; in assay [10], 32 µM; in [11] it was 24.9 µM. In addition, the TGI in assay [12] came to 33.8 µM; in assay [13], 25.2 µM; in assay [14], 46.1 µM; in [15] it was 28.4 µM; in [16], 13.3 µM.
`COc1ccc(N(C)S(=O)(=O)c2ccccc2)cc1`: the TGI in assay [1], in assay [17], in assay [2], in assay [3], in assay [4] and in assay [5] was > 100 µM throughout. The TGI in [6], in assay [7], in assay [8], in [9], in assay [10] and in [11] was > 100 µM each time. Moreover, the TGI in [12], in [13], in assay [14], in [15] and in [16] was > 100 µM throughout.
Regarding `O=C(Nc1cc(C(=O)Nc2cccc(S(=O)(=O)O)c2)cc(C(=O)Nc2cccc(S(=O)(=O)O)c2)c1)c1cccc(C(=O)Nc2cc(C(=O)Nc3cccc(S(=O)(=O)O)c3)cc(C(=O)Nc3cccc(S(=O)(=O)O)c3)c2)c1`, the TGI in [1], in assay [17], in [2], in assay [3], in [4] and in [5] was > 100 µM throughout. For the same molecule, the TGI in [6], in assay [7], in assay [8], in [9], in assay [10] and in assay [11] was > 100 µM each time. The TGI in assay [12] was > 100 µM; in assay [13], > 100 µM; in [14] it was > 100 µM; in assay [15], > 100 µM; in [16], 65.5 µM.
